Measured values taken from US11519859B2, “Rhodol-based thallium sensors for high-throughput screening of potassium channels” (priority 2018, dated 2022).

Experiments:
[1] = system: HEK-293 cells co-expressing GIRK1 and GIRK2; details: dye loading 1 h, 1 mM Tl^+ stimulus; for on/off (Tl^+ flux assay), maximum fold increase in fluorescence after Tl^+ addition: 10 μM ML297, 2 mM Allura Red AC, n = 6
Method: HEK-293 cells co-expressing GIRK1 and GIRK2 were cultured to 80% confluence in a T75 flask (Techno Plastic Products, Trasadingen, CH) at 37° C. and 5% CO2 in medium consisting of Minimal Essential Medium (Cellgro, Manassas, Va.) containing 1× Glutagro (Cellgro, Manassas, Va.) and 10% (v/v) heat-inactivated fetal bovine serum (Life Technologies, Carlsbad, Calif.). The cells were dislodged by treatment with TrypLE (Gibco/Life Technologies, Carlsbad, Calif.), diluted in medium, and plated on clear bottomed, black-walled, amine coated 384 well plates (BD Biosciences, Billerica, Mass.) at a density ˜20,000 cells per well. The plated cells were incubated overnight at 37° C. and 5% CO2 and used for the assay the next day.
Dye loading solutions of Thallos were prepared by dissolving a 25 μg aliquot in 30 μL of 6.7% Pluoronic F-127 (w/v) in DMSO and diluting the resulting solution 1:1000 into assay buffer. Culture medium was removed and replaced with 20 μL of dye loading buffer and incubated in the dark at room temperature for 1 h.
Assay—Assays were conducted on a WaveFront Biosciences Panoptic 1 or 2 (WaveFront Biosciences, Franklin, Tenn.) as indicated. Dye loading solutions were removed and replaced with assay buffer immediately before imaging unless otherwise noted. 10 s following commencement of plate imaging, 20 μL of compound at 2.5× concentration in assay buffer was added and incubated for 120 s at which point 10 μL of Tl^+ at 5× concentration in stimulus buffer (125 mM NaHCO3, 1.8 mM CaSO4, 1 mM MgSO4, 5 mM glucose, 10 mM HEPES, pH 7.4, and T12SO4), and images taken for the following 120 s.
1 mM of T12SO4 (final concentration) was used for stimulus. Assay and stimulus buffers were supplemented with 2 mM of Allura Red AC. […] On/off ratios were calculated by dividing the fluorescence intensity after saturation following Tl^+ addition by the fluorescence intensity immediately after compound addition (n=6).

[2] = Determination of photochemical properties of saponified dyes; format: physicochemical; details: for λmax (absorption maximum) / ε (molar absorptivity) / λem (fluorescence emission maximum): after saponification, 150 mM KCl, 10 mM HEPES, 50 μM EDTA, pH = 7.22; for ε (molar absorptivity): at λmax
Method: Evaluation of the photochemical properties of the active Thallium sensing species was accomplished by saponifying 10 μL of each pro-dye stock solution by incubating with 90 μL of 0.1 M KOH for 20 min at 37° C. with the exception of 8b which was treated with 1% NH4OH for 1 h at 37° C. The saponified compounds were diluted into 150 mM KCl buffered with 10 mM HEPES, pH=7.22 with 50 μM of EDTA. All photochemical measurements were taken in this buffer. Absorbance and fluorescence emission spectra were recorded on a Molecular Devices Spectromax M5 using polystyrene cuvettes with path length=1 cm at 23° C. Molar absorptivities are reported for λmax. The emission wavelengths monitored for recording excitation spectra, the excitation wavelengths used for recording emission spectra, and the corresponding emission cutoff filters used are listed in Table 2 below, and representative excitation and emission spectra are shown in FIG. 7.
To determine the in vitro photochemical properties of the active Tl^+ sensing species, 8a-m were treated with base to remove the acetoxymethyl esters and aryl acetate and then diluted into 10 mM HEPES buffered 150 mM KCl with 50 μM EDTA at pH=7.22.

GIRK1 and GIRK2 = molecular target: T1, GIRK1 and GIRK2 (Homo sapiens, UniProt P48051+P48549); test: ML297 concentration response curves by Tl+ flux assay; format: cell-based
T1 construct: expressed in transfected cells; host or cells: HEK-293
T1 sequence (P48549 1-501): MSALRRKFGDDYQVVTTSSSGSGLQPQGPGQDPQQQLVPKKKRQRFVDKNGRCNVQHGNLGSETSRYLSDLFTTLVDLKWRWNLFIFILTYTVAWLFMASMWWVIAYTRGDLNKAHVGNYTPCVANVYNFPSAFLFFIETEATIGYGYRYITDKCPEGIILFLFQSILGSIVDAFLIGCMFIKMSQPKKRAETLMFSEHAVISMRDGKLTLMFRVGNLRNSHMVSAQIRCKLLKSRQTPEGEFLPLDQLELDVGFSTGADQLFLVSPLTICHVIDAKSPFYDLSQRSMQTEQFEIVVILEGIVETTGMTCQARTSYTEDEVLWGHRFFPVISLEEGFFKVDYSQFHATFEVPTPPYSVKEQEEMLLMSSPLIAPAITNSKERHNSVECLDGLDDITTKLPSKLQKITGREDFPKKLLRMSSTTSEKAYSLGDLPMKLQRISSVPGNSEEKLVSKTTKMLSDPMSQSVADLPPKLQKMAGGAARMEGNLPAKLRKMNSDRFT
T1 sequence (P48051 1-423): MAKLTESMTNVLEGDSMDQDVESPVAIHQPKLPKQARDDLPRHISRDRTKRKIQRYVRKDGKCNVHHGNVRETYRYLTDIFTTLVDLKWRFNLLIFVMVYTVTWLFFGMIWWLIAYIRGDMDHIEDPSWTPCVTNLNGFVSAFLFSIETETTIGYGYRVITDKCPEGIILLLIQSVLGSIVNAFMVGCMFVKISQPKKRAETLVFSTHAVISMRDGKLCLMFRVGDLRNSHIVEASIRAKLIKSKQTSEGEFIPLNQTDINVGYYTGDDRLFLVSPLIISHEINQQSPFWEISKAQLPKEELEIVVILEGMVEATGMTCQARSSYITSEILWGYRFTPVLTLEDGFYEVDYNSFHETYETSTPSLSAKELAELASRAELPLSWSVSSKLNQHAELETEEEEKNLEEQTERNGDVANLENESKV
Description: ML297 concentration response curves—In general, all concentration-response data were collected on a WaveFront Biosciences Panoptic 2. Thallos treated cells were imaged using 482/35 nm excitation and 536/40 nm emission filters. 8c treated cells were imaged using 529/24 nm excitation and 565/24 nm emission filters (unless otherwise noted). FluxOR Red treated cells were imaged using 544/24 nm excitation and 593/40 nm emission filters (all filters purchased from Semrock, Rochester, N.Y.). FluxOR Red reagent was prepared according to the manufacturer's procedure. 5 μM of 8c was used for dye loading for all conditions.
FluxOR Red procedure with background suppressor. The manufacturer's procedure was followed with the exceptions that the dye loading solution was replaced with 20 μL of assay buffer, solutions of ML297 were prepared in assay buffer plus background suppressor, 20 μL of compound solution was added and 10 μL stimulus buffer (basal) was added according to the general assay protocol described above.
FluxOR Red procedure without background suppressor. The FluxOR Red manufacturer's procedure was followed except the background suppressor was replaced by H2O in all buffers.
Bicarbonate buffer with Allura Red AC. The assay and stimulus buffers described in the general Tl^+ flux procedure were used for dye loading, assay buffer with ML297, and stimulus buffer. All buffers were supplemented with 1 mM of Allura Red AC. The wash step to remove dye loading buffer was omitted.
Bicarbonate buffer without Allura Red AC. The general Tl^+ flux procedure was followed without any solutions supplemented with Allura Red AC.
The fluorescence intensity values of the first 6 time points for each well were averaged and the fluorescence intensity for all time points in the well was divided by this value to provide F/Fo for each time point. The average F/Fo of the vehicle control was then subtracted from each curve and the normalized, control subtracted fluorescence intensity value was sampled at a time point several seconds after Tl^+ addition. […] Fold increases in fluorescence reported in the main paper were calculated by averaging F/Fo between 100 and 110 s after Tl^+ addition. Data presented in FIG. 3 and FIG. 6 were obtained using 8c with the FluxOR Red kit as described above under the FluxOR Red with background suppressor procedure.
The performance of 8c was evaluated in a Tl^+ flux assay to generate a concentration response curve (CRC) of the GIRK activator ML297. […] Normalized, control subtracted fluorescence intensity values were sampled along the curves following Tl^+ addition at each concentration and a CRC was fit using GraphPad Prism (FIG. 3B).

| Compound | λmax (absorption maximum) [2] [nm] | ε (molar absorptivity) [2] [M⁻¹ cm⁻¹] | on/off (Tl^+ flux assay), maximum fold increase in fluorescence after Tl^+ addition [1] [fold] | λem (fluorescence emission maximum) [2] [nm] | also measured |
| --- | --- | --- | --- | --- | --- |
| COc1cc(NC(=O)c2ccc3c(c2)C(=O)OC32c3ccc(NC(C)=O)cc3Oc3cc(OC(C)=O)ccc32)ccc1N(CC(=O)OCOC(C)=O)CC(=O)OCOC(C)=O (centres unmarked) [Compound 8b, bis(acetoxymethyl) 2,2′-((4-(3′-acetamido-6′-acetoxy-3-oxo-3H-spiro[isobenzofuran-1,9′-xanthen]-5-ylcarboxamido)-2-methoxyphenyl)azanediyl)diacetate] | 463 | 24000 | – | – | fluorescence and response to Tl^+ in cells (in words) [1]: Fluorescence was not detected; fluorescence of saponified dye (in words) ([2]; reason why spectra were not recorded): very weak fluorescence |
| CCN(CC)c1ccc2c(c1)Oc1cc(OC(C)=O)ccc1C21OC(=O)c2cc(C(=O)Nc3ccc(N(CC(=O)OCOC(C)=O)CC(=O)OCOC(C)=O)c(OC)c3)ccc21 (centres unmarked) [Compound 8d, bis(acetoxymethyl) 2,2′-((4-(3′-acetoxy-6′-(diethylamino)-3-oxo-3H-spiro[isobenzofuran-1,9′-xanthen]-5-ylcarboxamido)-2-methoxyphenyl)azanediyl)diacetate] | 525 | 55000 | 3.28 ± 0.04 | 551 | – |
| CCCN(CCC)c1ccc2c(c1)Oc1cc(OC(C)=O)ccc1C21OC(=O)c2cc(C(=O)Nc3ccc(N(CC(=O)OCOC(C)=O)CC(=O)OCOC(C)=O)c(OC)c3)ccc21 (centres unmarked) [Compound 8e, bis(acetoxymethyl) 2,2′-((4-(3′-acetoxy-6′-(dipropylamino)-3-oxo-3H-spiro[isobenzofuran-1,9′-xanthen]-5-ylcarboxamido)-2-methoxyphenyl)azanediyl)diacetate] | 527 | 66000 | 2.94 ± 0.08 | 553 | – |
| CCCCN(CCCC)c1ccc2c(c1)Oc1cc(OC(C)=O)ccc1C21OC(=O)c2cc(C(=O)Nc3ccc(N(CC(=O)OCOC(C)=O)CC(=O)OCOC(C)=O)c(OC)c3)ccc21 (centres unmarked) [Compound 8f, bis(acetoxymethyl) 2,2′-((4-(3′-acetoxy-6′-(dibutylamino)-3-oxo-3H-spiro[isobenzofuran-1,9′-xanthen]-5-ylcarboxamido)-2-methoxyphenyl)azanediyl)diacetate] | 528 | 58000 | 1.52 ± 0.01 | 556 | – |
| COc1cc(NC(=O)c2ccc3c(c2)C(=O)OC32c3ccc(NC4CCCCC4)cc3Oc3cc(OC(C)=O)ccc32)ccc1N(CC(=O)OCOC(C)=O)CC(=O)OCOC(C)=O (centres unmarked) [Compound 8g, bis(acetoxymethyl) 2,2′-((4-(3′-acetoxy-6′-(cyclohexylamino)-3-oxo-3H-spiro[isobenzofuran-1,9′-xanthen]-5-ylcarboxamido)-2-methoxyphenyl)azanediyl)diacetate] | 514 | 57000 | 4.26 ± 0.07 | 535 | – |
| CCCCNc1ccc2c(c1)Oc1cc(OC(C)=O)ccc1C21OC(=O)c2cc(C(=O)Nc3ccc(N(CC(=O)OCOC(C)=O)CC(=O)OCOC(C)=O)c(OC)c3)ccc21 (centres unmarked) [Compound 8h, bis(acetoxymethyl) 2,2′-((4-(3′-acetoxy-6′-(butylamino)-3-oxo-3H-spiro[isobenzofuran-1,9′-xanthen]-5-ylcarboxamido)-2-methoxyphenyl)azanediyl)diacetate] | 511 | 48000 | 3.50 ± 0.07 | 533 | – |
| Cc1cc(NC(=O)Nc2ccc(F)c(F)c2)n(-c2ccccc2)n1 [ML297] | – | – | – | – | EC50 (GIRK1 and GIRK2; dye 8c (5 μM, 1 h), FluxOR Red kit with background suppressor, 1 mM Tl^+): 257 ± 3.7 nM; pEC50 and standard error of ML297 activation (GIRK1 and GIRK2; dye 8c (544x/593m filters), FluxOR Red Kit, Background Suppressor +): 6.63 ± 0.01; pEC50 and standard error of ML297 activation (GIRK1 and GIRK2; dye 8c (544x/593m filters), FluxOR Red Kit, Background Suppressor −): 6.66 ± 0.04; pEC50 and standard error of ML297 activation (GIRK1 and GIRK2; dye 8c, FluxOR Red Kit, Background Suppressor +): 6.59 ± 0.01; pEC50 and standard error of ML297 activation (GIRK1 and GIRK2; dye 8c, FluxOR Red Kit, Background Suppressor −): 6.61 ± 0.02; pEC50 and standard error of ML297 activation (GIRK1 and GIRK2; dye 8c, HCO3^− Stimulus Buffer, 1 mM Allura Red AC +): 6.69 ± 0.01; pEC50 and standard error of ML297 activation (GIRK1 and GIRK2; dye 8c, HCO3^− Stimulus Buffer, 1 mM Allura Red AC −): 6.59 ± 0.03; EC50 (GIRK1 and GIRK2; dye 8c, bicarbonate stimulus buffer, 500 μM Tl^+, no-wash, 1 mM Allura Red AC): 204 ± 5.2 nM; pEC50 and standard error of ML297 activation (GIRK1 and GIRK2; dye FluxOR Red, FluxOR Red Kit, Background Suppressor +): 6.64 ± 0.01; pEC50 and standard error of ML297 activation (GIRK1 and GIRK2; dye FluxOR Red, FluxOR Red Kit, Background Suppressor −): 6.41 ± 0.03; pEC50 and standard error of ML297 activation (GIRK1 and GIRK2; dye FluxOR Red, HCO3^− Stimulus Buffer, 1 mM Allura Red AC −): 7.02 ± 0.1; pEC50 and standard error of ML297 activation (GIRK1 and GIRK2; dye Thallos, FluxOR Red Kit, Background Suppressor +): 6.57 ± 0.04; pEC50 and standard error of ML297 activation (GIRK1 and GIRK2; dye Thallos, FluxOR Red Kit, Background Suppressor −): 6.65 ± 0.02; pEC50 and standard error of ML297 activation (GIRK1 and GIRK2; dye Thallos, HCO3^− Stimulus Buffer, 1 mM Allura Red AC +): 6.66 ± 0.01; pEC50 and standard error of ML297 activation (GIRK1 and GIRK2; dye Thallos, HCO3^− Stimulus Buffer, 1 mM Allura Red AC −): 6.61 ± 0.01; EC50 (GIRK1 and GIRK2; dye Thallos, bicarbonate stimulus buffer, 500 μM Tl^+, no-wash, 1 mM Allura Red AC): 219 ± 23 nM; EC50 (GIRK1 and GIRK2; dye Thallos, same procedure (FluxOR Red kit with background suppressor)): 272 ± 23 nM |
